# Publication PMC5679629, “Flavin-containing monooxygenase 3 (FMO3) role in busulphan metabolic pathway” (PLoS ONE, 2017)
# Assays:
# [1] = Busulphan and THT plasma kinetics in a patient treated concomitantly with voriconazole; format: in vivo, human; conditions: Bu 2mg/kg b.i.d. with concomitant voriconazole
# Experimental: In order to confirm the contribution of FMO3 to human Bu kinetics, blood samples were collected (routinely) from a patient who underwent stem cell transplantation and was conditioned according to the hospital transplantation protocol i.e. high dose of Bu (2mg/kg b.i.d.) for four days followed with two days of cyclophosphamide (60mg/kg). […] Voriconazole was administered, according to the hospital clinical protocol, for the treatment of an acute fungal infection.
# Samples were taken for therapeutic drug monitoring (TDM) at several time points after the first, third and fifth doses. Blood was collected into EDTA vacutainer tubes, plasma was separated by centrifugation at 1200 g and stored at -20°C until analysis of Bu and THT [18].
# [2] = biological target: T1, CYP2B6 (Homo sapiens, UniProt P20813); assay: THT disappearance with recombinant cDNA-expressed enzyme microsomes; format: in vitro ADME; conditions: 25μM THT, 35pmol CYP/mL
# T1 construct: purchased BD Biosciences; host or cells: baculovirus infected insect cells
# T1 sequence (P20813 1-491): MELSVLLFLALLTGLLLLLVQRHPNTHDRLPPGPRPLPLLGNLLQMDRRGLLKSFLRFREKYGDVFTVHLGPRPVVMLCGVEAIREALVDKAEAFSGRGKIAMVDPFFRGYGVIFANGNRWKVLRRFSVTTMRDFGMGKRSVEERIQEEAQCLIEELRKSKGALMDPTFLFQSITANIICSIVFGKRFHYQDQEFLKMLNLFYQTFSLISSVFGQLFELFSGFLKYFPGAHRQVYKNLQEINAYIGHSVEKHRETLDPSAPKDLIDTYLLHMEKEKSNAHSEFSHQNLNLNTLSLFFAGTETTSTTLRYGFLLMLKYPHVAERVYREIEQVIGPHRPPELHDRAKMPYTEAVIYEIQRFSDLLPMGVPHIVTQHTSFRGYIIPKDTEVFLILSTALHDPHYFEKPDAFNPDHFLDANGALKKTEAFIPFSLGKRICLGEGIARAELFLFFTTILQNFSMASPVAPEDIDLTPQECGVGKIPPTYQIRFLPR
# Experimental: (§1) To identify the enzymes involved in Bu metabolism, 11 microsomal batches (BD Biosciences, Stockholm, Sweden), each containing a separate cDNA-expressed enzyme, were incubated with 25μM THT. The microsomes contained FMO3, CYP1A1, CYP1A2, CYP2B6, CYP2C8, CYP2C9, CYP2C19, CYP2D6, CYP2E1, CYP3A4 or CYP4A11. Time curves (0, 5, 15, 30 and 60min) were performed at a concentration of 0.35mg protein /mL for FMO3 and 35pmol CYP/mL for the CYP enzymes. The recombinant enzymes were produced from human cDNA expressing each of them using baculovirus expression system. Baculovirus infected insect cells were used to prepare these microsomes.
# (§2) Incubations were performed in triplicate and negative controls (excluding NADPH, microsomes, THT or by terminating the incubations before the addition of NADPH) were run in parallel.
# (§3) To measure THT and the secondary metabolite, sulfolane, the reactions were terminated by adding dichloromethane. Samples (180μL) were added to 10μM nicotine (20μL, Merck, Hoherbrunn, Germany), used as an internal standard, before extraction. The matrix was extracted by liquid-liquid extraction with dichloromethane (equal volumes, 200μL) after 30 sec of high speed vortexing. After extraction and centrifugation at 16000 g for 10 min, the organic phase was transferred into GC-MS tubes. […] Samples (180μL) were added to 10 μM of 3-methylsulfolane (20μL, TCI, Tokyo, Japan), used as an internal standard. The matrix was lyophilized (< 1 mbar at 40°C under N2 stream) to dryness, the residue was dissolved in 10 μL water and 200 μL of ethyl acetate was added for extraction. Samples were vortexed for 30 sec at high speed and centrifuged at 16000 g for 10 min. The organic phase was transferred to GC-MS tubes.
# (§4) Concentrations of THT and its metabolites were measured using GC-MS [18] after validation for use with microsomal incubations according to the international guidelines.
# [3] = biological target: T2, CYP2C9 (Homo sapiens, UniProt P11712); assay: as above; format: in vitro ADME; conditions: 25μM THT, 35pmol CYP/mL
# T2 construct: purchased BD Biosciences; host or cells: baculovirus infected insect cells
# T2 sequence (P11712 whole entry): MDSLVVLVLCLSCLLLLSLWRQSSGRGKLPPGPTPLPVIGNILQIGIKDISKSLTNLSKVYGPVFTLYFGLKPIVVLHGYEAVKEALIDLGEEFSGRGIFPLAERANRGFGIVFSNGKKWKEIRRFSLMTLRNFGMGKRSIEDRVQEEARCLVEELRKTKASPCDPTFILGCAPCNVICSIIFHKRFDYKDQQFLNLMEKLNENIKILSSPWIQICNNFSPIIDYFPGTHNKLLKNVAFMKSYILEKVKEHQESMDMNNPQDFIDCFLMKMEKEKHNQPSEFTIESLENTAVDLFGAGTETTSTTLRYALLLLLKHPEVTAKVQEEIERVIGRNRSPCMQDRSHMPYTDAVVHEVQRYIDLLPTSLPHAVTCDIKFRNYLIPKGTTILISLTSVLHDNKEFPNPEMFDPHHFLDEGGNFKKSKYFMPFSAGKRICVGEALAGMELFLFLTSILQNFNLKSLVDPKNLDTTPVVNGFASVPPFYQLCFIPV
# Experimental: as §1, §2, §3, §4
# [4] = biological target: T3, CYP2D6 (Homo sapiens, UniProt P10635); assay: as above; format: in vitro ADME; conditions: 25μM THT, 35pmol CYP/mL
# T3 construct: purchased BD Biosciences; host or cells: baculovirus infected insect cells
# T3 sequence (P10635 whole entry): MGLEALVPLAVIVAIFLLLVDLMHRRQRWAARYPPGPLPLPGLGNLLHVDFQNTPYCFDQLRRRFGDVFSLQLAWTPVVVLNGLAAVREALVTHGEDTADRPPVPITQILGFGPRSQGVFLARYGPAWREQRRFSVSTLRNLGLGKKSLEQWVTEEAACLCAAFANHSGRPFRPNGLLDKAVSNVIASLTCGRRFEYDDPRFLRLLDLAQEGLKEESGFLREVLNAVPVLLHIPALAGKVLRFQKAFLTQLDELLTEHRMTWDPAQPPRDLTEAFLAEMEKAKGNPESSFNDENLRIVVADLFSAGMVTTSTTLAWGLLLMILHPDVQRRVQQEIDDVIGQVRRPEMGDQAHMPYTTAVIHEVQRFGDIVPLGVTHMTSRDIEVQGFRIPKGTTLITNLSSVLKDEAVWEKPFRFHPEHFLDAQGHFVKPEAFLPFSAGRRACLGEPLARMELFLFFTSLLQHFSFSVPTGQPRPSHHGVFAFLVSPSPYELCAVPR
# Experimental: as §1, §2, §3, §4
# [5] = biological target: T4, FMO3 (Homo sapiens, UniProt P31513); assay: as above; format: in vitro ADME; conditions: 25μM THT, 0.35mg protein/mL
# T4 construct: purchased BD Biosciences; host or cells: baculovirus infected insect cells
# T4 sequence (P31513 1-532): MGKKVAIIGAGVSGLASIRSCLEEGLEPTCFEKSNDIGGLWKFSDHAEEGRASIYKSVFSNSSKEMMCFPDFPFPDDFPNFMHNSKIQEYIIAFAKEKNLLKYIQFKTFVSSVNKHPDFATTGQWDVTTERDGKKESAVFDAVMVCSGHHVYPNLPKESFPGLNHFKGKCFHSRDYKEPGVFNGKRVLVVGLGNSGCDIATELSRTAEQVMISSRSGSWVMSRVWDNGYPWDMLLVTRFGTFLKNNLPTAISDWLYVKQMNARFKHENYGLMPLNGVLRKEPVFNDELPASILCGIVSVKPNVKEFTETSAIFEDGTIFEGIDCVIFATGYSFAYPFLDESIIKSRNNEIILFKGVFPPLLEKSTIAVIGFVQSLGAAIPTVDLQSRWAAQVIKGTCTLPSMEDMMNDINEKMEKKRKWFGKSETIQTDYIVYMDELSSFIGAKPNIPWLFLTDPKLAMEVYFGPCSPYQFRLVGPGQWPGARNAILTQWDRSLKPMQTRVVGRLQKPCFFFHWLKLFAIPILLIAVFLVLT
# Experimental: as §1, §2, §3, §4
# [6] = biological target: T5, CYP1A2 (Homo sapiens, UniProt P05177); assay: as above; format: in vitro ADME; conditions: 25μM THT, 35pmol CYP/mL
# T5 construct: purchased BD Biosciences; host or cells: baculovirus infected insect cells
# T5 sequence (P05177 1-516): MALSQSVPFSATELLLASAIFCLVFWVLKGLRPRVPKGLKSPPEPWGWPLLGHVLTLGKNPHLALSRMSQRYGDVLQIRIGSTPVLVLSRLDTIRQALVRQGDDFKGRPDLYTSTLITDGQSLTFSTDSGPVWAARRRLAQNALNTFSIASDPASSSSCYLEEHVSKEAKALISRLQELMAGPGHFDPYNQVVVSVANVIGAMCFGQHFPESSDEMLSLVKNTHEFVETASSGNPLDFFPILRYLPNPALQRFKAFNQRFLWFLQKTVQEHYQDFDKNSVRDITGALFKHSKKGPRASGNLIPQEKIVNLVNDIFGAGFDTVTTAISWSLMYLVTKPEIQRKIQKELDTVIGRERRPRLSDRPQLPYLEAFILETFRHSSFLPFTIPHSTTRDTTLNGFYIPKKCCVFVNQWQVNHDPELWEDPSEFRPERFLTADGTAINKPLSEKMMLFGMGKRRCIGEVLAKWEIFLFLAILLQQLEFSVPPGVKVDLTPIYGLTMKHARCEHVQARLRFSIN
# Experimental: as §1, §2, §3, §4
structure (smiles),measurement,setting,value
"C1CCSC1 [THT, tetrahydrothiophene]",THT concentrations versus Bu alone,[1],higher concentrations than with Bu alone
same,time at which THT was detected after the first dose of Bu,[1],1 h
same,v0,[2],1.76 nmol/min/mL
same,v0/CYP,[2],0.05 nmol/min/pmol CYP
same,v0,[3],1.64 nmol/min/mL
same,v0/CYP,[3],0.05 nmol/min/pmol CYP
same,v0,[4],2.24 nmol/min/mL
same,v0/CYP,[4],0.06 nmol/min/pmol CYP
same,THT disappeared (metabolized) by recombinant FMO3,[5]; within 15min,96%
same,CLint value,[5]; FMO3,709.14 μL/min/mg protein
same,v0,[5]; FMO3,6.87 nmol/min/mL
same,v0,[6],1.24 nmol/min/mL
same,v0/CYP,[6],0.04 nmol/min/pmol CYP
